These results are taken from US20230257398A1, “PYRIMIDINE-BASED TRICYCLIC COMPOUND AND USE THEREOF” (Chia Tai Tianqing Pharmaceutical Group Co., Ltd., priority 2020, published 2023).

For the assay, the target named is T1, sGC (Homo sapiens, UniProt Q02108+Q02153).
T1 construct: Preparation of LNCap Cells; endogenous in cells; host or cells: LNCaP cells (14th generation), no transfection described
T1 sequence (Q02153 1-619): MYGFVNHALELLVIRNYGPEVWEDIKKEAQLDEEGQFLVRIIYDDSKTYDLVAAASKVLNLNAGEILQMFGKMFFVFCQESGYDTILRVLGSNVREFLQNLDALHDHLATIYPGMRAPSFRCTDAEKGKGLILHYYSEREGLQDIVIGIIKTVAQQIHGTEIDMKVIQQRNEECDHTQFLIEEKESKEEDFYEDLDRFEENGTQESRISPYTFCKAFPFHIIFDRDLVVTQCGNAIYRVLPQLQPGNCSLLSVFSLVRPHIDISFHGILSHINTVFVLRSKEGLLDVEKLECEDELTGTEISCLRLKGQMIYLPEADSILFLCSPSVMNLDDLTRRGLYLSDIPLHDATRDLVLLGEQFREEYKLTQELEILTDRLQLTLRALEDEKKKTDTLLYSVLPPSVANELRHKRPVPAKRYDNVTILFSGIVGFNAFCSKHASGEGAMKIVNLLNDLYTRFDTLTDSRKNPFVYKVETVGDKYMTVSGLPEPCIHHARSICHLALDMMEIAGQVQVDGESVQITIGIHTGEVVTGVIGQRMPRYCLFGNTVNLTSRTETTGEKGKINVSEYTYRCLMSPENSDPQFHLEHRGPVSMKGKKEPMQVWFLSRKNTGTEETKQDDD
T1 sequence (Q02108 1-690): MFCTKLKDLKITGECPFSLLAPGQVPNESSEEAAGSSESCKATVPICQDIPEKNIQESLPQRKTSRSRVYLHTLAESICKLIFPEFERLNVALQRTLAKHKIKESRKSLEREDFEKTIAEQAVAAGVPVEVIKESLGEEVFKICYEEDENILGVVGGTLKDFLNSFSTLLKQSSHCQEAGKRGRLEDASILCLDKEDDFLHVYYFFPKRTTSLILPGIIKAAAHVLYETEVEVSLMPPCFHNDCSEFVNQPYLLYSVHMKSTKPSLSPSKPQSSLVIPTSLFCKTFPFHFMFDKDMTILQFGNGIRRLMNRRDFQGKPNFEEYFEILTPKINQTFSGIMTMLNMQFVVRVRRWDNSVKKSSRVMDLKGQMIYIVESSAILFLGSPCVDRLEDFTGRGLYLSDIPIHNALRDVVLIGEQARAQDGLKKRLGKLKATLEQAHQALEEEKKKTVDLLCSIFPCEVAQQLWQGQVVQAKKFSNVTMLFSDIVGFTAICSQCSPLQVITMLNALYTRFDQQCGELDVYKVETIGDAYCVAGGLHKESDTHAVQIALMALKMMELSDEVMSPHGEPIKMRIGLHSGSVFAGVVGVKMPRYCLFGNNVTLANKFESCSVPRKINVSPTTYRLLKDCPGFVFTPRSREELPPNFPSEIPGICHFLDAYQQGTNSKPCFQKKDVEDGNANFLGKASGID
Put plainly: lnCap cell-based cGMP expression assay (stimulating activity for sGC). The conditions noted are these: with DETA-NO, 37° C. 30 min, HTRF cGMP. How it is done: I. lnCap Cell-Based cGMP Expression Assay
1) Preparation of Solutions
10% BSA (Bovine Serum Albumin)
10 g of BSA was dissolved in 100 mL of double distilled water (ddH2O) to give 10% BSA.
5 mM DETA (Diethylenetriamine)-NO
10 mg of DETA-NO was weighed out and dissolved in 12.2 mL of double distilled water (ddH2O) to give 5 mM DETA-NO, which was aliquoted and cryopreserved in a freezer at −20° C.
a) To 1 mL of a lysis buffer was added 50 μL of cGMP-D2 (D2-labeled cyclic guanosine monophosphate), and the mixture was well mixed.
b) To 1 mL of a lysis buffer was added 50 μL of anti-cGMP cryptate (Eu^3+ cryptate-labeled anti-cyclic guanosine monophosphate antibody), and the mixture was well mixed.
(1) The compounds were diluted to 5 mM with DMSO. 10 μL of each of the compounds was transferred to a shallow well plate for Echo.
(2) The compounds were gradiently diluted with Echo. Each of the compounds was diluted to obtain 10 concentration gradients, and 50 nL of each of the concentration gradients was added to a 384 microwell plate.
3) Preparation of LNCap Cells
(1) LNCap medium: RPMI1640+10% fetal bovine serum+1% […].
(2) Phosphate buffered saline, pancreatin and the medium used in the process of cell passaging were pre-heated in a water bath at 37° C.
(3) The cells (the 14th generation) were taken out of the 37° C., 5% CO2 incubator, and the old medium was pipetted off the culture flask.
(4) 5 mL of phosphate buffered saline was pipetted into the culture flask to rinse the cells, and then the liquid was discarded.
(5) 3 mL of pancreatin was pipetted into the culture flask. After the culture flask was shaken, the liquid was discarded, and the culture flask was placed in the incubator.
(6) After about 2 min the culture flask was taken out. […] The cell suspension was transferred to a 50 mL centrifuge tube.
(7) 0.7 mL of the cell suspension was pipetted into a counter cup and the cells were counted on a ViCell XR. The remaining cells were centrifuged at 1000 rpm for 5 min, and the supernatant was removed.
(8) The cells were washed by adding 10 mL of the washing buffer and centrifuged at 1000 rpm for 5 min, and the supernatant was removed.
(9) The assay buffer was added to adjust the cell concentration to 1.25×10^6/mL. The cells were added to the microwell plate at 8 μL/well.
4) Formulation and Addition of DETA-NO
(1) 10 μL of 5 mM DETA-NO was added to 1240 μL of the assay buffer and to 1657 μL of the assay buffer to give 40 μM DETA-NO and 30 μM DETA-NO, respectively.
(2) DETA-NO was transferred to the 384 microwell plate at 2 μL/well using Bravo.
(3) The mixtures were centrifuged at 1500 rpm for 5 min. The microwell plate was incubated at 37° C. for 30 min.
5) Preparation of cGMP Standard Curve
(1) 1 mM of the cGMP stock solution was diluted to 10 μM with the assay buffer. Then 4-fold gradient dilution was performed to obtain 11 concentration gradients.
(2) The cGMP dilutions were added to the microwell plate at 10 μL/well.
6) Addition of Detection Reagents and Plate Reading
(1) cGMP-D2 was transferred to the 384 microwell plate at 5 μL/well using Bravo. The mixtures were centrifuged at 1500 rpm for 1 min.
(2) The anti-cGMP cryptate was transferred to the 384 microwell plate at 5 μL/well using Bravo. The mixtures were centrifuged at 1500 rpm for 1 min.
(3) The plate was incubated at room temperature for 1 h.
(4) 665/615 was read using envision.
(1) cGMP standard curve: a standard curve was generated using Graphpad prism based on the cGMP concentrations and 665/615 ratios.
(2) Conversion of HTRF (homogeneous time-resolved fluorescence) ratios (665/615) to cGMP concentrations: in Graphpad prism, the HTRF ratios (665/615) were copied into the ratio column of the cGMP standard curve, and the “Log inhibitor vs response-variable slope” analysis was run with “interpolate” selected to convert the HTRF ratios (665/615) to cGMP concentrations. […]
As to `CC12CC(=O)Nc3nc(-c4nn(Cc5ccccc5F)c5ncc(F)cc45)nc(c31)NC2=O` (centres unmarked) [Compound 001], the “MEC: minimum effective concentration to stimulate cGMP production (three times greater than the basal value) in lnCap cells” value (from here on “MEC: minimum effective concentration”) is 6.38 nM.

On to `O=c1[nH]c2nc(-c3nn(Cc4ccccc4F)c4ncc(F)cc34)nc3c2n1CCN3` [Compound 002], for which the “MEC: minimum effective concentration” value was determined as 81.22 nM.

Take `CC12CCNc3nc(-c4nn(Cc5ccccc5F)c5ncc(F)cc45)nc(c31)NC2=O` (centres unmarked) [Compound 003]: the “MEC: minimum effective concentration” value is on record as 7.97 nM.

On to `O=C1Cn2c(=O)[nH]c3nc(-c4nn(Cc5ccccc5F)c5ncc(F)cc45)nc(c32)N1` [Compound 004], for which the “MEC: minimum effective concentration” value was determined as 142.79 nM.

Take `CC12CC(=O)Nc3nc(-c4nn(Cc5ccccc5F)c5ncc(F)cc45)nc(c31)NC(=O)C2` [Compound 007]: the “MEC: minimum effective concentration” value is given as 55.54 nM.

Regarding `CC12CCC(=O)Nc3nc(-c4nn(Cc5ccccc5F)c5ncc(F)cc45)nc(c31)NC(=O)C2` (centres unmarked) [Compound 008], the “MEC: minimum effective concentration” value stood at 88.37 nM.

As for `CC12CCNc3nc(-c4nn(CCC(F)(F)C(F)(F)F)c5ncc(F)cc45)nc(c31)NC2=O` (centres unmarked) [Compound 009], the “MEC: minimum effective concentration” value came out at 5.8 nM.

As for `CC12CC(=O)Nc3nc(-c4nn(Cc5c(F)cccc5F)c5ncc(F)cc45)nc(c31)NC(=O)C2` [Compound 010], the “MEC: minimum effective concentration” value was found to be 51.76 nM.

Take `CC12CCC(=O)Nc3nc(-c4nn(Cc5c(F)cccc5F)c5ncc(F)cc45)nc(c31)NC(=O)C2` (centres unmarked) [Compound 011]: the “MEC: minimum effective concentration” value is listed as 178.6 nM.

For `CC12CC(=O)Nc3nc(-c4nn(CCC(F)(F)C(F)(F)F)c5ncc(F)cc45)nc(c31)NC(=O)C2` [Compound 012], the “MEC: minimum effective concentration” value amounted to 118.6 nM.

Consider `CC12CCC(=O)Nc3nc(-c4nn(Cc5c(F)cccc5F)c5ncc(F)cc45)nc(c31)NC2=O` (centres unmarked) [Compound 013], for which the “MEC: minimum effective concentration” value stood at 3.12 nM.

`CC12CCC(=O)Nc3nc(-c4nn(CCC(F)(F)C(F)(F)F)c5ncc(F)cc45)nc(c31)NC(=O)C2` (centres unmarked) [Compound 014]: the “MEC: minimum effective concentration” value came to 402.7 nM.

Consider `CC12CCNc3nc(-c4nn(Cc5c(F)cccc5F)c5ncc(F)cc45)nc(c31)NC2=O` (centres unmarked) [Compound 015], for which the “MEC: minimum effective concentration” value was 4.66 nM.

On to `CC12CC(=O)Nc3nc(-c4nn(CCC(F)(F)C(F)(F)F)c5ncc(F)cc45)nc(c31)NC2=O` (centres unmarked) [Compound 016], for which the “MEC: minimum effective concentration” value is recorded as 17.51 nM.

With `CC12CC(=O)Nc3nc(-c4nn(Cc5c(F)cccc5F)c5ncc(F)cc45)nc(c31)NC2=O` (centres unmarked) [Compound 017], the “MEC: minimum effective concentration” value stood at 3.46 nM.

In the case of `CC12CCC(=O)Nc3nc(-c4nn(CCC(F)(F)C(F)(F)F)c5ncc(F)cc45)nc(c31)NC2=O` (centres unmarked) [Compound 018], the “MEC: minimum effective concentration” value is on record as 13.12 nM.

For the compound `CC12CCC(=O)Nc3nc(-c4nn(Cc5ccccc5F)c5ncc(F)cc45)nc(c31)NC2=O` (centres unmarked) [Compound 019], the “MEC: minimum effective concentration” value amounted to 2.4 nM.

Consider `CC12CCNc3nc(-c4nn(Cc5c(F)cccc5F)c5ncc(F)cc45)nc(c31)NC(=O)C2` (centres unmarked) [Compound 022], for which the “MEC: minimum effective concentration” value worked out at 24.9 nM.

Regarding `CC12CCNc3nc(-c4nn(CCC(F)(F)C(F)(F)F)c5ncc(F)cc45)nc(c31)NC(=O)C2` (centres unmarked) [Compound 023], the “MEC: minimum effective concentration” value is listed as 26.12 nM.

Take `CC12CC(=O)Nc3nc(-c4nn(Cc5ccccc5F)c5ncc(F)cc45)nc(c31)NC2=O` (centres unmarked) [Compound 024]: the “MEC: minimum effective concentration” value was determined as 7.59 nM.

With `CC12CNC(=O)c3nc(-c4nn(Cc5ccccc5F)c5ncc(F)cc45)nc(c31)NC2=O` (centres unmarked) [Compound 028], the “MEC: minimum effective concentration” value is listed as 21.26 nM.

`CN1C(=O)CC2(C)C(=O)Nc3nc(-c4nn(Cc5ccccc5F)c5ncc(F)cc45)nc1c32` (centres unmarked) [Compound 029]: the “MEC: minimum effective concentration” value is given as 37.34 nM.

With `CN1C(=O)C2(C)CC(=O)Nc3nc(-c4nn(Cc5ccccc5F)c5ncc(F)cc45)nc1c32` (centres unmarked) [Compound 030], the “MEC: minimum effective concentration” value was 84.34 nM.

For `CC1(C)C(=O)Nc2nc(-c3nn(Cc4ccccc4F)c4ncc(F)cc34)nc3c2C1C(=O)N3` (centres unmarked) [Compound 031], the “MEC: minimum effective concentration” value came out at 19.78 nM.

With `CC12C(=O)Nc3nc(-c4nn(Cc5ccccc5F)c5ncc(F)cc45)nc(c31)NC(=O)C2(F)F` (centres unmarked) [Compound 034], the “MEC: minimum effective concentration” value is given as 31.53 nM.

With `CC12OCCNc3nc(-c4nn(Cc5ccccc5F)c5ncc(F)cc45)nc(c31)NC2=O` (centres unmarked) [Compound 039], the “MEC: minimum effective concentration” value worked out at 28.15 nM.
